Reference: ChEMBL document CHEMBL1146892, “Pyrrolidine bis-cyclic guanidines with antimicrobial activity against drug-resistant Gram-positive pathogens identified from a mixture-based combinatorial library” (2006)
≈ marks a conversion by molar mass, not a printed value.

How the values were obtained:
Format in all cases: functional
Escherichia coli = assay: Antibacterial activity against Escherichia coli ATCC 25922
Enterococcus faecalis = assay: Antibacterial activity against vancomycin-resistant Enterococcus faecalis ATCC 51299
Staphylococcus aureus = assay: Antibacterial activity against methicillin-resistant Staphylococcus aureus ATCC 33591

SMILES | MBC (Escherichia coli) | MIC (Escherichia coli) | MBC (Enterococcus faecalis) | MIC (Enterococcus faecalis) | MBC (Staphylococcus aureus) | MIC (Staphylococcus aureus)
CCCC[C@@H]1CN([C@H](Cc2ccc3ccccc3c2)CN2CCCC2CN2C(N)=NC[C@@H]2C)C(=N)N1CCc1cc(C(F)(F)F)cc(C(F)(F)F)c1 (some centres not stated) | > 10 µg/mL | > 10 µg/mL | > 10 µg/mL | < 2.5 µg/mL | 2.5 µg/mL (≈ 3.43 µM) | < 2.5 µg/mL
CC(C)Cc1ccc(C(C)CN2C(=N)N([C@H](Cc3ccc4ccccc4c3)CN3CCCC3CN3C(N)=NC[C@@H]3C)C[C@@H]2CC2CCCCC2)cc1 (some centres not stated) | > 10 µg/mL | > 10 µg/mL | 2.5 µg/mL (≈ 3.55 µM) | > 10 µg/mL | 2.5 µg/mL (≈ 3.55 µM) | 2.5 µg/mL (≈ 3.55 µM)
CC(C)Cc1ccc(C(C)CN2C(=N)N([C@H](CC3CCCCC3)CN3CCCC3CN3C(N)=NC[C@@H]3Cc3ccccc3)C[C@@H]2CC2CCCCC2)cc1 (some centres not stated) | > 10 µg/mL | > 10 µg/mL | > 10 µg/mL | < 2.5 µg/mL | 2.5 µg/mL (≈ 3.4 µM) | < 2.5 µg/mL
C[C@H]1CN=C(N)N1CC1CCCN1C[C@H](CC1CCCCC1)N1C[C@H](CC2CCCCC2)N(CCc2cc(C(F)(F)F)cc(C(F)(F)F)c2)C1=N (some centres not stated) | > 10 µg/mL | > 10 µg/mL | > 10 µg/mL | < 2.5 µg/mL | < 2.5 µg/mL | < 2.5 µg/mL
N=C1N(CCc2cc(C(F)(F)F)cc(C(F)(F)F)c2)[C@@H](CC2CCCCC2)CN1[C@H](CC1CCCCC1)CN1CCCC1CN1C(N)=NC[C@@H]1Cc1ccccc1 (some centres not stated) | > 10 µg/mL | > 10 µg/mL | > 10 µg/mL | 2.5 µg/mL (≈ 3.12 µM) | < 2.5 µg/mL | < 2.5 µg/mL
CCCC[C@@H]1CN([C@H](CC2CCCCC2)CN2CCCC2CN2C(N)=NC[C@@H]2Cc2ccccc2)C(=N)N1CC(C)c1ccc(CC(C)C)cc1 (some centres not stated) | > 10 µg/mL | > 10 µg/mL | < 2.5 µg/mL | < 2.5 µg/mL | < 2.5 µg/mL | < 2.5 µg/mL
CCCC[C@@H]1CN([C@H](CC2CCCCC2)CN2CCCC2CN2C(N)=NC[C@@H]2Cc2ccccc2)C(=N)N1CCc1cc(C(F)(F)F)cc(C(F)(F)F)c1 (some centres not stated) | 5 µg/mL (≈ 6.56 µM) | 5 µg/mL (≈ 6.56 µM) | < 2.5 µg/mL | < 2.5 µg/mL | 2.5 µg/mL (≈ 3.28 µM) | < 2.5 µg/mL
C[C@H]1CN=C(N)N1CC1CCCN1C[C@@H](Cc1ccc2ccccc2c1)N1C[C@H](CC2CCCCC2)N(CCc2cc(C(F)(F)F)cc(C(F)(F)F)c2)C1=N (some centres not stated) | 5 µg/mL (≈ 6.49 µM) | 5 µg/mL (≈ 6.49 µM) | < 2.5 µg/mL | < 2.5 µg/mL | < 2.5 µg/mL | < 2.5 µg/mL
CC(C)Cc1ccc(C(C)CN2C(=N)N([C@@H](CC3CCCCC3)CN3CCCC3CN3C(N)=NC[C@@H]3C)C[C@@H]2CC2CCCCC2)cc1 (some centres not stated) | 5 µg/mL (≈ 7.58 µM) | 5 µg/mL (≈ 7.58 µM) | > 10 µg/mL | < 2.5 µg/mL | 2.5 µg/mL (≈ 3.79 µM) | < 2.5 µg/mL
CCCC[C@@H]1CN([C@@H](CC2CCCCC2)CN2CCCC2CN2C(N)=NC[C@@H]2Cc2ccccc2)C(=N)N1CC(C)c1ccc(CC(C)C)cc1 (some centres not stated) | > 10 µg/mL | > 10 µg/mL | < 2.5 µg/mL | < 2.5 µg/mL | 2.5 µg/mL (≈ 3.59 µM) | < 2.5 µg/mL
N=C1N(CCc2cc(C(F)(F)F)cc(C(F)(F)F)c2)[C@@H](CC2CCCCC2)CN1[C@H](Cc1ccc2ccccc2c1)CN1CCCC1CN1C(N)=NC[C@@H]1Cc1ccccc1 (some centres not stated) | > 10 µg/mL | > 10 µg/mL | < 2.5 µg/mL | < 2.5 µg/mL | < 2.5 µg/mL | < 2.5 µg/mL
CCCC[C@@H]1CN([C@H](Cc2ccc3ccccc3c2)CN2CCCC2CN2C(N)=NC[C@@H]2Cc2ccccc2)C(=N)N1CCc1cc(C(F)(F)F)cc(C(F)(F)F)c1 (some centres not stated) | > 10 µg/mL | > 10 µg/mL | > 10 µg/mL | < 2.5 µg/mL | < 2.5 µg/mL | < 2.5 µg/mL
CCCC[C@@H]1CN([C@H](Cc2ccc3ccccc3c2)CN2CCCC2CN2C(N)=NC[C@@H]2C)C(=N)N1CC(C)c1ccc(CC(C)C)cc1 (some centres not stated) | 5 µg/mL (≈ 7.53 µM) | 5 µg/mL (≈ 7.53 µM) | 2 µg/mL (≈ 3.01 µM) | < 2.5 µg/mL | 2.5 µg/mL (≈ 3.77 µM) | 2.5 µg/mL (≈ 3.77 µM)
CCCC[C@@H]1CN([C@@H](CC2CCCCC2)CN2CCCC2CN2C(N)=NC[C@@H]2C)C(=N)N1CC(C)c1ccc(CC(C)C)cc1 (some centres not stated) | > 10 µg/mL | > 10 µg/mL | > 10 µg/mL | < 2.5 µg/mL | 2.5 µg/mL (≈ 4.03 µM) | 2.5 µg/mL (≈ 4.03 µM)
CCCC[C@@H]1CN([C@@H](CC2CCCCC2)CN2CCCC2CN2C(N)=NC[C@@H]2C)C(=N)N1CCc1cc(C(F)(F)F)cc(C(F)(F)F)c1 (some centres not stated) | > 10 µg/mL | > 10 µg/mL | > 10 µg/mL | > 10 µg/mL | 2.5 µg/mL (≈ 3.65 µM) | 2.5 µg/mL (≈ 3.65 µM)
N=C1N(CCc2cc(C(F)(F)F)cc(C(F)(F)F)c2)[C@H](CC2CCCCC2)CN1[C@H](CC1CCCCC1)CN1CCCC1CN1C(N)=NC[C@@H]1Cc1ccccc1 (some centres not stated) | > 10 µg/mL | > 10 µg/mL | 2.5 µg/mL (≈ 3.12 µM) | 2.5 µg/mL (≈ 3.12 µM) | < 2.5 µg/mL | < 2.5 µg/mL
CCCC[C@@H]1CN([C@H](CC2CCCCC2)CN2CCCC2CN2C(N)=NC[C@@H]2C)C(=N)N1CCc1cc(C(F)(F)F)cc(C(F)(F)F)c1 (some centres not stated) | > 10 µg/mL | > 10 µg/mL | > 10 µg/mL | > 10 µg/mL | < 2.5 µg/mL | < 2.5 µg/mL
